Assay results reported in patent US12492173B2, “Herbicidal substituted N-tetrazolyl aryl carboxamides” (Bayer Aktiengesellschaft, priority 2019, dated 2025).

Test system: Polygonum convolvulus
Assay: Pre-emergence herbicidal action, POLCO
Type: in vivo
Conditions: dosage 320 g/ha, scored visually after 3 weeks vs untreated controls (100% = plants have died)
Method in brief: (§1)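 Visual scoring after 3 weeks in the greenhouse, relative to untreated pots, gave percent activity, where 100% means dead plants and 0% equals controls. Treatment was a pre-emergence soil-surface spray of WP or EC formulations in water (600 to 800 l/ha, 0.2% wetting agent) over seeds covered in sandy loam.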

SMILES | herbicidal activity POLCO
Cn1nnnc1NC(=O)c1ccc(C(F)(F)F)c(CS(=O)(=O)CC2CC2)c1Cl [Example 1-316] | 100%
CCn1nnnc1NC(=O)c1ccc(C(F)F)c(CS(=O)(=O)CC)c1Cl [Example 2-325] | 100%
COCC[S+]([O-])Cc1c(C(F)(F)F)ccc(C(=O)Nc2nnnn2C)c1Cl (racemic) [Example 1-306] | 80%
Cn1nnnc1NC(=O)c1ccc(C(F)(F)F)c(C[S+]([O-])C2CC2)c1Cl (racemic) [Example 1-303] | 100%
Cn1nnnc1NC(=O)c1ccc(C(F)(F)F)c(C[S+]([O-])CC(F)(F)F)c1Cl (racemic) [Example 1-312] | 90%
CCCn1nnnc1NC(=O)c1ccc(C(F)(F)F)c(C[S+]([O-])CC)c1Br (centres unmarked) [Example 3-384] | 80%
CCn1nnnc1NC(=O)c1ccc(C(F)(F)F)c(CS(C)(=O)=O)c1Cl [Example 2-298] | 90%
CCCn1nnnc1NC(=O)c1ccc(C(F)F)c(CSCC)c1Cl [Example 3-323] | 100%

Test system: Polygonum convolvulus
Assay: Post-emergence herbicidal action, POLCO
Type: in vivo
Conditions: Dosage 80 g/ha
Method in brief: (§2)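 Sandy loam, greenhouse; one-leaf stage (2–3 wk after sowing); foliar spray of WP or EC, 600–800 l/ha water + 0.2% wetter; visual rating at ~3 wk vs untreated, % effect.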

SMILES | herbicidal action POLCO
Cn1nnnc1NC(=O)c1ccc(C(F)(F)F)c(CS(=O)(=O)CC2CC2)c1Cl [Example 1-316] | 100
CCn1nnnc1NC(=O)c1ccc(C(F)F)c(CS(=O)(=O)CC)c1Cl [Example 2-325] | 90
COCC[S+]([O-])Cc1c(C(F)(F)F)ccc(C(=O)Nc2nnnn2C)c1Cl (racemic) [Example 1-306] | 90
CCCn1nnnc1NC(=O)c1ccc(C(F)(F)F)c(C[S+]([O-])CC)c1Br (centres unmarked) [Example 3-384] | 90
CCn1nnnc1NC(=O)c1ccc(C(F)(F)F)c(CS(C)(=O)=O)c1Cl [Example 2-298] | 90
CCCn1nnnc1NC(=O)c1ccc(C(F)F)c(CSCC)c1Cl [Example 3-323] | 80

Same assay, conditions: post-emergence, dosage 80 g/ha

SMILES | herbicidal action POLCO
Cn1nnnc1NC(=O)c1ccc(C(F)(F)F)c(C[S+]([O-])C2CC2)c1Cl (racemic) [Example 1-303] | 100%
Cn1nnnc1NC(=O)c1ccc(C(F)(F)F)c(C[S+]([O-])CC(F)(F)F)c1Cl (racemic) [Example 1-312] | 100%

Test system: Amaranthus retroflexus
Assay: Pre-emergence herbicidal action, AMARE
Type: in vivo
Conditions: dosage 320 g/ha, scored visually after 3 weeks vs untreated controls (100% = plants have died)
Method in brief: as §1

SMILES | herbicidal activity AMARE
Cn1nnnc1NC(=O)c1ccc(C(F)(F)F)c(CS(=O)(=O)CC2CC2)c1Cl [Example 1-316] | 100%
CCn1nnnc1NC(=O)c1ccc(C(F)F)c(CS(=O)(=O)CC)c1Cl [Example 2-325] | 100%
COCC[S+]([O-])Cc1c(C(F)(F)F)ccc(C(=O)Nc2nnnn2C)c1Cl (racemic) [Example 1-306] | 100%
Cn1nnnc1NC(=O)c1ccc(C(F)(F)F)c(C[S+]([O-])C2CC2)c1Cl (racemic) [Example 1-303] | 100%
Cn1nnnc1NC(=O)c1ccc(C(F)(F)F)c(C[S+]([O-])CC(F)(F)F)c1Cl (racemic) [Example 1-312] | 100%
CCCn1nnnc1NC(=O)c1ccc(C(F)(F)F)c(C[S+]([O-])CC)c1Br (centres unmarked) [Example 3-384] | 100%
CCn1nnnc1NC(=O)c1ccc(C(F)(F)F)c(CS(C)(=O)=O)c1Cl [Example 2-298] | 100%
CCCn1nnnc1NC(=O)c1ccc(C(F)F)c(CSCC)c1Cl [Example 3-323] | 100%

Test system: Stellaria media
Assay: Post-emergence herbicidal action, STEME
Type: in vivo
Parameters: key: % herbicidal action vs untreated; 100 = plants died, 0 = like control
Conditions: Dosage 80 g/ha
Method in brief: as §2

SMILES | herbicidal action STEME
Cn1nnnc1NC(=O)c1ccc(C(F)(F)F)c(CS(=O)(=O)CC2CC2)c1Cl [Example 1-316] | 100
CCn1nnnc1NC(=O)c1ccc(C(F)F)c(CS(=O)(=O)CC)c1Cl [Example 2-325] | 100
COCC[S+]([O-])Cc1c(C(F)(F)F)ccc(C(=O)Nc2nnnn2C)c1Cl (racemic) [Example 1-306] | 90
CCCn1nnnc1NC(=O)c1ccc(C(F)(F)F)c(C[S+]([O-])CC)c1Br (centres unmarked) [Example 3-384] | 100
CCn1nnnc1NC(=O)c1ccc(C(F)(F)F)c(CS(C)(=O)=O)c1Cl [Example 2-298] | 100
CCCn1nnnc1NC(=O)c1ccc(C(F)F)c(CSCC)c1Cl [Example 3-323] | 100

Same assay, conditions: post-emergence, dosage 80 g/ha

SMILES | herbicidal action STEME
Cn1nnnc1NC(=O)c1ccc(C(F)(F)F)c(C[S+]([O-])C2CC2)c1Cl (racemic) [Example 1-303] | 100%
Cn1nnnc1NC(=O)c1ccc(C(F)(F)F)c(C[S+]([O-])CC(F)(F)F)c1Cl (racemic) [Example 1-312] | 100%

Test system: Avena fatua
Assay: Post-emergence herbicidal action, AVEFA
Type: in vivo
Parameters: key: % herbicidal action vs untreated; 100 = plants died, 0 = like control
Conditions: Dosage 80 g/ha
Method in brief: as §2

SMILES | herbicidal action AVEFA
Cn1nnnc1NC(=O)c1ccc(C(F)(F)F)c(CS(=O)(=O)CC2CC2)c1Cl [Example 1-316] | 100
CCn1nnnc1NC(=O)c1ccc(C(F)F)c(CS(=O)(=O)CC)c1Cl [Example 2-325] | 90
COCC[S+]([O-])Cc1c(C(F)(F)F)ccc(C(=O)Nc2nnnn2C)c1Cl (racemic) [Example 1-306] | 80
CCCn1nnnc1NC(=O)c1ccc(C(F)(F)F)c(C[S+]([O-])CC)c1Br (centres unmarked) [Example 3-384] | 90
CCn1nnnc1NC(=O)c1ccc(C(F)(F)F)c(CS(C)(=O)=O)c1Cl [Example 2-298] | 100
CCCn1nnnc1NC(=O)c1ccc(C(F)F)c(CSCC)c1Cl [Example 3-323] | 90

Same assay, conditions: post-emergence, dosage 80 g/ha

SMILES | herbicidal action AVEFA
Cn1nnnc1NC(=O)c1ccc(C(F)(F)F)c(C[S+]([O-])C2CC2)c1Cl (racemic) [Example 1-303] | 100%
Cn1nnnc1NC(=O)c1ccc(C(F)(F)F)c(C[S+]([O-])CC(F)(F)F)c1Cl (racemic) [Example 1-312] | 90%

Test system: Pharbitis purpurea
Assay: Pre-emergence herbicidal action, PHBPU
Type: in vivo
Conditions: dosage 320 g/ha, scored visually after 3 weeks vs untreated controls (100% = plants have died)
Method in brief: as §1

SMILES | herbicidal activity PHBPU
Cn1nnnc1NC(=O)c1ccc(C(F)(F)F)c(CS(=O)(=O)CC2CC2)c1Cl [Example 1-316] | 90%
CCn1nnnc1NC(=O)c1ccc(C(F)F)c(CS(=O)(=O)CC)c1Cl [Example 2-325] | 100%
COCC[S+]([O-])Cc1c(C(F)(F)F)ccc(C(=O)Nc2nnnn2C)c1Cl (racemic) [Example 1-306] | 90%
Cn1nnnc1NC(=O)c1ccc(C(F)(F)F)c(C[S+]([O-])C2CC2)c1Cl (racemic) [Example 1-303] | 100%
Cn1nnnc1NC(=O)c1ccc(C(F)(F)F)c(C[S+]([O-])CC(F)(F)F)c1Cl (racemic) [Example 1-312] | 90%
CCCn1nnnc1NC(=O)c1ccc(C(F)(F)F)c(C[S+]([O-])CC)c1Br (centres unmarked) [Example 3-384] | 90%
CCn1nnnc1NC(=O)c1ccc(C(F)(F)F)c(CS(C)(=O)=O)c1Cl [Example 2-298] | 80%
CCCn1nnnc1NC(=O)c1ccc(C(F)F)c(CSCC)c1Cl [Example 3-323] | 100%

Test system: Matricaria inodora
Assay: Post-emergence herbicidal action, MATIN
Type: in vivo
Parameters: key: % herbicidal action vs untreated; 100 = plants died, 0 = like control
Conditions: Dosage 80 g/ha
Method in brief: as §2

SMILES | herbicidal action MATIN
Cn1nnnc1NC(=O)c1ccc(C(F)(F)F)c(CS(=O)(=O)CC2CC2)c1Cl [Example 1-316] | 90
CCn1nnnc1NC(=O)c1ccc(C(F)F)c(CS(=O)(=O)CC)c1Cl [Example 2-325] | 80
COCC[S+]([O-])Cc1c(C(F)(F)F)ccc(C(=O)Nc2nnnn2C)c1Cl (racemic) [Example 1-306] | 90
CCCn1nnnc1NC(=O)c1ccc(C(F)(F)F)c(C[S+]([O-])CC)c1Br (centres unmarked) [Example 3-384] | 100
CCn1nnnc1NC(=O)c1ccc(C(F)(F)F)c(CS(C)(=O)=O)c1Cl [Example 2-298] | 100
CCCn1nnnc1NC(=O)c1ccc(C(F)F)c(CSCC)c1Cl [Example 3-323] | 90

Same assay, conditions: post-emergence, dosage 80 g/ha

SMILES | herbicidal action MATIN
Cn1nnnc1NC(=O)c1ccc(C(F)(F)F)c(C[S+]([O-])C2CC2)c1Cl (racemic) [Example 1-303] | 100%
Cn1nnnc1NC(=O)c1ccc(C(F)(F)F)c(C[S+]([O-])CC(F)(F)F)c1Cl (racemic) [Example 1-312] | 100%
